Data taken from ChEMBL document CHEMBL3885881, “DrugMatrix”.

Species on record: Rattus norvegicus
Experiment: DrugMatrix - Regimen: Daily Repeat
Assay type: toxicity, organism-based, Sprague-Dawley
Design: regimen Daily Repeat, gender Male, age 6-8 weeks
Settings: in vivo, po, 0 mg/kg, route oral GAVAGE, dose level Control, vehicle 100 % WATER; for ABSOLUTE BASOPHIL / ABSOLUTE EOSINOPHIL / ABSOLUTE LYMPHOCYTE / ABSOLUTE MONOCYTE / ABSOLUTE SEGMENTED NEUTROPHIL / BASOPHIL / EOSINOPHIL / ERYTHROCYTE COUNT / HEMATOCRIT / HEMOGLOBIN / LEUKOCYTE COUNT / LYMPHOCYTE / MEAN CORPUSCULAR HEMOGLOBIN / MEAN CORPUSCULAR HEMOGLOBIN CONCENTRATION / MEAN CORPUSCULAR VOLUME / MONOCYTE / NEUTROPHIL / NUCLEATED RED BLOOD CELLS / PLATELET COUNT: tissue Blood; for ALANINE AMINOTRANSFERASE / ALKALINE PHOSPHATASE / ASPARTATE AMINOTRANSFERASE / BLOOD UREA NITROGEN / CARBON DIOXIDE / CHLORIDE / CHOLESTEROL / CREATINE PHOSPHOKINASE / CREATININE / GLUCOSE / LACTATE DEHYDROGENASE / LIPASE / PHOSPHORUS / POTASSIUM / SODIUM / TOTAL BILIRUBIN / TOTAL PROTEIN / URIC ACID: tissue Plasma

## Cn1c(=O)c2[nH]cnc2n(C)c1=O.O [THEOPHYLLINE]
72 h, time 3 day
  ABSOLUTE BASOPHIL: 0 CELLS/uL
  ABSOLUTE EOSINOPHIL: 168.33 CELLS/uL
  ABSOLUTE LYMPHOCYTE: 13654.17 CELLS/uL
  ABSOLUTE MONOCYTE: 121 CELLS/uL
  ABSOLUTE SEGMENTED NEUTROPHIL: 1223.17 CELLS/uL
  BASOPHIL: 0%
  EOSINOPHIL: 1.17%
  ERYTHROCYTE COUNT: 5.7 x10E6/uL
  HEMATOCRIT: 35.33%
  HEMOGLOBIN: 13.97 G/DL
  LEUKOCYTE COUNT: 15.17 x10E3/uL
  LYMPHOCYTE: 89.83%
  MEAN CORPUSCULAR HEMOGLOBIN: 24.53 pg
  MEAN CORPUSCULAR HEMOGLOBIN CONCENTRATION: 39.53 G/DL
  MEAN CORPUSCULAR VOLUME: 62.05 fL
  MONOCYTE: 0.83%
  NEUTROPHIL: 8.17%
  NUCLEATED RED BLOOD CELLS: 0 /100WBC
  PLATELET COUNT: 1312.17 x10E3/uL
  ALANINE AMINOTRANSFERASE: 50.83 u/L
  ALKALINE PHOSPHATASE: 334.17 u/L
  ASPARTATE AMINOTRANSFERASE: 82.17 u/L
  BLOOD UREA NITROGEN: 15.5 mg/dL
  CARBON DIOXIDE: 31.33 mmol/L
  CHLORIDE: 99.83 MEQ/L
  CHOLESTEROL: 76 mg/dL
  CREATINE PHOSPHOKINASE: 272.17 u/L
  CREATININE: 0.17 mg/dL
  GLUCOSE: 143 mg/dL
  LACTATE DEHYDROGENASE: 157.5 u/L
  LIPASE: 9.33 u/L
  PHOSPHORUS: 12.18 mg/dL
  POTASSIUM: 6.78 MEQ/L
  SODIUM: 143.9 MEQ/L
  TOTAL BILIRUBIN: 0.22 mg/dL
  TOTAL PROTEIN: 5.85 G/DL
  URIC ACID: 1.7 mg/dL
120 h, time 5 day
  ABSOLUTE BASOPHIL: 0 CELLS/uL
  ABSOLUTE EOSINOPHIL: 0 CELLS/uL
  ABSOLUTE LYMPHOCYTE: 13539.33 CELLS/uL
  ABSOLUTE MONOCYTE: 177.67 CELLS/uL
  ABSOLUTE SEGMENTED NEUTROPHIL: 2116.33 CELLS/uL
  BASOPHIL: 0%
  EOSINOPHIL: 0%
  ERYTHROCYTE COUNT: 5.78 x10E6/uL
  HEMATOCRIT: 36.13%
  HEMOGLOBIN: 14.1 G/DL
  LEUKOCYTE COUNT: 15.83 x10E3/uL
  LYMPHOCYTE: 85.83%
  MEAN CORPUSCULAR HEMOGLOBIN: 24.42 pg
  MEAN CORPUSCULAR HEMOGLOBIN CONCENTRATION: 39 G/DL
  MEAN CORPUSCULAR VOLUME: 62.55 fL
  MONOCYTE: 0.83%
  NEUTROPHIL: 13.33%
  NUCLEATED RED BLOOD CELLS: 0.17 /100WBC
  PLATELET COUNT: 1281.17 x10E3/uL
  ALANINE AMINOTRANSFERASE: 55.5 u/L
  ALKALINE PHOSPHATASE: 345 u/L
  ASPARTATE AMINOTRANSFERASE: 92.5 u/L
  BLOOD UREA NITROGEN: 16.5 mg/dL
  CARBON DIOXIDE: 26.5 mmol/L
  CHLORIDE: 103.5 MEQ/L
  CHOLESTEROL: 78.5 mg/dL
  CREATINE PHOSPHOKINASE: 381.5 u/L
  CREATININE: 0.21 mg/dL
  GLUCOSE: 161.83 mg/dL
  LACTATE DEHYDROGENASE: 487.5 u/L
  LIPASE: 10.17 u/L
  PHOSPHORUS: 11.83 mg/dL
  POTASSIUM: 6.4 MEQ/L
  SODIUM: 146.95 MEQ/L
  TOTAL BILIRUBIN: 0.22 mg/dL
  TOTAL PROTEIN: 6.22 G/DL
  URIC ACID: 1.83 mg/dL
